From BindingDB's records for doi:10.7270/Q25H7DQC (Nmmlsc, 2009) come the findings set out here.

The structures appear in SMILES notation.

Sequence of Ras-related protein Rab-2A (P61105 whole entry): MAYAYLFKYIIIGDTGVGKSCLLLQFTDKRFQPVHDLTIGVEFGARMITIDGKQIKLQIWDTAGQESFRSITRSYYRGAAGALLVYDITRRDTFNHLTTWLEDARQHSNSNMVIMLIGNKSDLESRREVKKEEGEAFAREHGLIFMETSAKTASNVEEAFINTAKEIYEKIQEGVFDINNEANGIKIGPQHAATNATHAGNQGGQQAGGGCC

The first test addresses Ras-related protein Rab-2A (Canis lupus familiaris, UniProt P61105). As to the kind of experiment: wildtype Rab2 GTP-binding inhibitors, SAR follow-up, biochemical, multiplex dose response, Bodipy-FL-GTP, flow cytometry (AID 2033).
Conditions: not given
(In general: In flow cytometry, cells or beads pass a laser one at a time.)
Usually EC50 stands for the midpoint of the concentration-response curve. `COc1ccc(-c2noc(CCC(=O)N3CCN(c4cccc(C)c4)CC3)n2)cc1` [UNM-0000306125]: the EC50 was over 30 µM.
As to `COc1ccccc1-c1noc(CCC(=O)N2CCN(c3cc(C)ccc3C)CC2)n1` [UNM-0000306071], the EC50 is over 30 µM.
Same read-out and setting: in the case of `COc1ccc(-c2noc(CCC(=O)N3CCN(c4cccc(C(F)(F)F)c4)CC3)n2)cc1` [1-{3-[3-(4-methoxyphenyl)-1,2,4-oxadiazol-5-yl]propanoyl}-4-[3-(trifluoromethyl)phenyl]piperazine] it was over 30 µM; in that of `COc1ccc(-c2noc(CCC(=O)N3CCN(c4cccc(Br)c4)CC3)n2)cc1` [1-[4-(3-bromophenyl)-1-piperazinyl]-3-[3-(4-methoxyphenyl)-1,2,4-oxadiazol-5-yl]-1-propanone], over 30 µM; in that of `COc1ccc(-c2noc(CCC(=O)N3CCN(c4cccc(F)c4)CC3)n2)cc1` [1-[4-(3-fluorophenyl)piperazin-1-yl]-3-[3-(4-methoxyphenyl)-1,2,4-oxadiazol-5-yl]propan-1-one], over 30 µM.
The same measure, in the same setting: for `COc1ccc(-c2cccc(CCC(=O)N3CCN(c4cc(C)ccc4C)CC3)c2)cc1` [UNM-0000306127] the value was over 30 µM.
Compound `Cc1ccc(C)c(N2CCN(C(=O)CCc3nc(-c4ccccc4C(F)(F)F)no3)CC2)c1` had an EC50 of over 30 µM.
On the same count and under the same terms, for `COc1ccc(-c2noc(CCCCC(=O)N3CCN(c4cc(C)ccc4C)CC3)n2)cc1` [1-[4-(2,5-dimethylphenyl)-1-piperazinyl]-5-[3-(4-methoxyphenyl)-1,2,4-oxadiazol-5-yl]-1-pentanone] the value was over 30 µM; for `COc1ccc(-c2noc(CCC(=O)N3CCN(c4ccccc4)CC3)n2)cc1` [3-[3-(4-methoxyphenyl)-1,2,4-oxadiazol-5-yl]-1-(4-phenylpiperazin-1-yl)propan-1-one], over 30 µM.
Same read-out and setting: in the case of `COc1ccc(-c2coc(CCC(=O)N3CCN(c4cc(C)ccc4C)CC3)n2)cc1` [1-[4-(2,5-dimethylphenyl)piperazin-1-yl]-3-[4-(4-methoxyphenyl)-1,3-oxazol-2-yl]propan-1-one] it was over 30 µM.
For the compound `Cc1ccc(C)c(N2CCN(C(=O)CCc3nc(-c4ccc(C(F)(F)F)cc4)no3)CC2)c1` [1-[4-(2,5-dimethylphenyl)-1-piperazinyl]-3-[3-[4-(trifluoromethyl)phenyl]-1,2,4-oxadiazol-5-yl]-1-propanone], the 50% effective concentration (EC50) was over 30 µM.
In the case of `COc1ccc(-c2noc(CCC(=O)N3CCN(c4ccc(Br)cc4)CC3)n2)cc1` [1-[4-(4-bromophenyl)piperazin-1-yl]-3-[3-(4-methoxyphenyl)-1,2,4-oxadiazol-5-yl]propan-1-one], the EC50 is over 30 µM.
In turn, `COc1ccc(-c2noc(CC(=O)N3CCN(c4cc(C)ccc4C)CC3)n2)cc1` [1-[4-(2,5-dimethylphenyl)piperazin-1-yl]-2-[3-(4-methoxyphenyl)-1,2,4-oxadiazol-5-yl]ethanone] displayed an EC50 of over 30 µM.
`COc1ccc(-c2noc(CCC(=O)N3CCN(c4ccc(C(F)(F)F)cc4)CC3)n2)cc1` [3-[3-(4-methoxyphenyl)-1,2,4-oxadiazol-5-yl]-1-[4-[4-(trifluoromethyl)phenyl]piperazin-1-yl]propan-1-one] showed an EC50 of over 30 µM.
Turning to `COc1ccc(-c2noc(CCC(=O)N3CCN(c4ccc(Cl)cc4)CC3)n2)cc1` [UNM-0000306121], the EC50 was over 30 µM.
Still for that read-out and setting: for `COc1ccc(-c2cc(CCC(=O)N3CCN(c4cc(C)ccc4C)CC3)[nH]n2)cc1` [UNM-0000306150] the value was over 30 µM.
`Cc1ccc(C)c(N2CCN(C(=O)CCc3nc(-c4cccc(F)c4)no3)CC2)c1` [KUC103366N] came in with an EC50 of over 30 µM.
In turn, `COc1ccc(-c2noc(CCC(=O)N3CCN(c4ccc(F)cc4)CC3)n2)cc1` [KUC103398N] gave an EC50 of over 30 µM.
`Cc1ccc(C)c(N2CCN(C(=O)CCc3nc(-c4cccc(C(F)(F)F)c4)no3)CC2)c1` [KUC103380N] showed an EC50 of over 30 µM.
On to `Cc1ccc(C)c(N2CCN(C(=O)CCc3nc(-c4ccccc4Cl)no3)CC2)c1` [3-[3-(2-chlorophenyl)-1,2,4-oxadiazol-5-yl]-1-[4-(2,5-dimethylphenyl)-1-piperazinyl]-1-propanone], for which the EC50 is over 30 µM.
In turn, `COc1ccc(-c2noc(CCC(=O)N3CCN(c4ccc(OC)cc4)CC3)n2)cc1` [3-[3-(4-methoxyphenyl)-1,2,4-oxadiazol-5-yl]-1-[4-(4-methoxyphenyl)piperazin-1-yl]propan-1-one] displayed an EC50 of over 30 µM.
Consider `Cc1ccc(C)c(N2CCN(C(=O)CCc3nc(-c4ccc(N(C)C)cc4)no3)CC2)c1` [KUC103409N], for which the EC50 is over 30 µM.

The test is the same for the next values; noted with them: inactive by the depositor's call.
Compound `COc1ccc(-c2noc(CCC(=O)N3CCN(c4ccccc4Cl)CC3)n2)cc1` [1-[4-(2-chlorophenyl)piperazin-1-yl]-3-[3-(4-methoxyphenyl)-1,2,4-oxadiazol-5-yl]propan-1-one] came in with an EC50 of 2.39 µM.
Still for that read-out and setting: for `COc1ccc(-c2ccc(CCC(=O)N3CCN(c4cc(C)ccc4C)CC3)[nH]2)cc1` [1-[4-(2,5-dimethylphenyl)piperazin-1-yl]-3-[5-(4-methoxyphenyl)-1H-pyrrol-2-yl]propan-1-one] the value was 5.22 µM; for `COc1ccc(-c2noc(CCC(=O)N3CCN(c4ccccc4OC)CC3)n2)cc1` [3-[3-(4-methoxyphenyl)-1,2,4-oxadiazol-5-yl]-1-[4-(2-methoxyphenyl)-1-piperazinyl]-1-propanone], 1.32 µM.
On to `COc1ccc(-c2noc(CCC(=O)N3CCN(c4cc(C)ccc4C)CC3)n2)cc1` [1-[4-(2,5-dimethylphenyl)-1-piperazinyl]-3-[3-(4-methoxyphenyl)-1,2,4-oxadiazol-5-yl]-1-propanone], for which a half-maximal effect (EC50) was put at 2.49 µM.
Still for that read-out and setting: in the case of `COc1ccc(-c2noc(CCC(=O)N3CCN(c4ccccc4F)CC3)n2)cc1` [1-[4-(2-fluorophenyl)piperazin-1-yl]-3-[3-(4-methoxyphenyl)-1,2,4-oxadiazol-5-yl]propan-1-one] it was 0.733 µM.
`Cc1ccc(C)c(N2CCN(C(=O)CCc3nc(-c4ccccc4Br)no3)CC2)c1` [3-[3-(2-bromophenyl)-1,2,4-oxadiazol-5-yl]-1-[4-(2,5-dimethylphenyl)-1-piperazinyl]-1-propanone] came in with an EC50 of 3.13 µM.
Still for that read-out and setting: in the case of `Cc1ccc(C)c(N2CCN(C(=O)CCc3nc(-c4ccccc4)no3)CC2)c1` [UNM-0000306070] it was 0.841 µM.
Turning to `COc1ccc(-c2noc(CCCC(=O)N3CCN(c4cc(C)ccc4C)CC3)n2)cc1` [KUC103353N], a half-maximal effect (EC50) was put at 16.2 µM.
The same measure, in the same setting: in the case of `COc1cccc(-c2noc(CCC(=O)N3CCN(c4cc(C)ccc4C)CC3)n2)c1` it was 3.9 µM; in that of `COc1ccc(-c2cc(CCC(=O)N3CCN(c4cc(C)ccc4C)CC3)on2)cc1` [1-[4-(2,5-dimethylphenyl)piperazin-1-yl]-3-[3-(4-methoxyphenyl)-1,2-oxazol-5-yl]propan-1-one], 2.54 µM.
For `COc1ccc(-c2noc(CCC(=O)N3CCN(c4ccccc4Br)CC3)n2)cc1` [KUC103370N], the EC50 worked out at 3.22 µM.
In turn, `COc1ccc(-c2noc(CCC(=O)N3CCC(c4cc(C)ccc4C)CC3)n2)cc1` [KUC103432N] returned an EC50 of 2.51 µM.
On to `COc1ccc(-c2noc(CCC(=O)N3CCN(c4cccc(OC)c4)CC3)n2)cc1` [KUC103349N], for which the EC50 stood at 6.46 µM.
On the same count and under the same terms, in the case of `Cc1ccc(C)c(N2CCN(C(=O)CCc3nc(-c4ccc(Br)cc4)no3)CC2)c1` [UNM-0000306072] it was 2.94 µM.
On the same count and under the same terms, for `Cc1ccc(C)c(N2CCN(C(=O)CCc3nc(-c4ccc(Cl)cc4)no3)CC2)c1` [UNM-0000306083] the value was 1.79 µM; for `Cc1ccc(C)c(N2CCN(C(=O)CCc3nc(-c4ccccc4C)no3)CC2)c1`, 1.67 µM; for `Cc1ccc(C)c(N2CCN(C(=O)CCc3nc(-c4cccc(Cl)c4)no3)CC2)c1` [UNM-0000306086], 2.9 µM.
Take `COc1ccc(-c2noc(CCC(=O)N3CCN(c4cccc(C)c4C)CC3)n2)cc1` [1-[4-(2,3-dimethylphenyl)-1-piperazinyl]-3-[3-(4-methoxyphenyl)-1,2,4-oxadiazol-5-yl]-1-propanone]: the EC50 came out at 2.31 µM.
As for `Cc1cccc(-c2noc(CCC(=O)N3CCN(c4cc(C)ccc4C)CC3)n2)c1` [1-[4-(2,5-dimethylphenyl)piperazin-1-yl]-3-[3-(3-methylphenyl)-1,2,4-oxadiazol-5-yl]propan-1-one], a half-maximal effect (EC50) was put at 1.32 µM.
In turn, `COc1ccc(-c2ccc(CCC(=O)N3CCN(c4cc(C)ccc4C)CC3)o2)cc1` [KUC103447N] displayed an EC50 of 15.1 µM. This EC50 lies about 11-fold higher than the previous one.
The compound `Cc1ccc(C)c(N2CCN(C(=O)CCc3nc(-c4ccc(F)cc4)no3)CC2)c1` [KUC103364N] had a concentration for a half-maximal effect (EC50) of 0.335 µM.
In the case of `COc1ccc(-c2ccc(CCC(=O)N3CCN(c4cc(C)ccc4C)CC3)s2)cc1`, the concentration giving a half-maximal response (EC50) was determined as 2.48 µM.
Still for that read-out and setting: in the case of `COc1ccc(-c2noc(CCC(=O)N3CCN(c4ccccc4C(F)(F)F)CC3)n2)cc1` [UNM-0000306082] it was 2.1 µM; in that of `Cc1ccc(C)c(N2CCN(C(=O)CCc3nc(-c4cccc(Br)c4)no3)CC2)c1` [KUC103367N], 3.66 µM.
`COc1ccc(-c2noc(CCC(=O)N3CCN(c4ccc(C)cc4)CC3)n2)cc1` [3-[3-(4-methoxyphenyl)-1,2,4-oxadiazol-5-yl]-1-[4-(4-methylphenyl)piperazin-1-yl]propan-1-one] gave an EC50 of 0.708 µM.
In turn, `Cc1ccc(C)c(N2CCN(C(=O)CCc3nc(-c4ccccc4F)no3)CC2)c1` [KUC103401N] came in with an EC50 of 0.908 µM.
`COc1ccc(-c2noc(CCC(=O)N3CCN(c4ccccc4C)CC3)n2)cc1` registered an EC50 of 2.54 µM.
`COc1ccc(-c2noc(CCC(=O)N3CCN(c4cccc(Cl)c4)CC3)n2)cc1` had an EC50 of 8.53 µM. This EC50 is about 3.4-fold higher than that of the compound before.
In the case of `Cc1ccc(-c2noc(CCC(=O)N3CCN(c4cc(C)ccc4C)CC3)n2)cc1` [1-[4-(2,5-dimethylphenyl)-1-piperazinyl]-3-[3-(4-methylphenyl)-1,2,4-oxadiazol-5-yl]-1-propanone], the EC50 was 4.14 µM. Compared with the last compound, the EC50 is about 2.1-fold lower.
